Experimental findings from patent US12091426B2, “Bifunctional degraders of hematopoietic progenitor kinase and therapeutic uses thereof” (Nurix Therapeutics, Inc., priority 2021, dated 2024) are described below.

In this experiment the target is T1, HPK1 (Homo sapiens, UniProt Q92918).
T1 construct: A HiBiT tag was introduced by CRISPR on the N terminus of HPK1 in Jurkat cells; host or cells: Jurkat cells (ATCC TIB-152), monoclonal line with CRISPR knock-in of HiBiT at the endogenous HPK1 locus
Put plainly: HPK1 Cellular HiBit Degradation Assay. As to conditions: HiBiT HPK1 Jurkat cells, 24 hrs; for DC50: concentration at which 50% of HPK1 was remaining, read-out: DC50 Category; for Dmax: Jurkat, maximum degradation vs DMSO vehicle control, read-out: Dmax Category. Format: cell-based. Put shortly:
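Jurkat cells with CRISPR N-terminal HiBiT-tagged endogenous HPK1 treated 24 h at 37 °C with 11-point, 3.16-fold dilutions (10 uM to 0.1 nM final). HiBiT lytic luminescence gives % HPK1 remaining versus DMSO, with parental cells as background. Four-parameter fit yields DC50; Dmax = 100 minus lowest % remaining.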
In general terms: With HiBiT, luminescence reflects the tagged protein that the partner subunit can reach.

T1 sequence (Q92918 whole entry): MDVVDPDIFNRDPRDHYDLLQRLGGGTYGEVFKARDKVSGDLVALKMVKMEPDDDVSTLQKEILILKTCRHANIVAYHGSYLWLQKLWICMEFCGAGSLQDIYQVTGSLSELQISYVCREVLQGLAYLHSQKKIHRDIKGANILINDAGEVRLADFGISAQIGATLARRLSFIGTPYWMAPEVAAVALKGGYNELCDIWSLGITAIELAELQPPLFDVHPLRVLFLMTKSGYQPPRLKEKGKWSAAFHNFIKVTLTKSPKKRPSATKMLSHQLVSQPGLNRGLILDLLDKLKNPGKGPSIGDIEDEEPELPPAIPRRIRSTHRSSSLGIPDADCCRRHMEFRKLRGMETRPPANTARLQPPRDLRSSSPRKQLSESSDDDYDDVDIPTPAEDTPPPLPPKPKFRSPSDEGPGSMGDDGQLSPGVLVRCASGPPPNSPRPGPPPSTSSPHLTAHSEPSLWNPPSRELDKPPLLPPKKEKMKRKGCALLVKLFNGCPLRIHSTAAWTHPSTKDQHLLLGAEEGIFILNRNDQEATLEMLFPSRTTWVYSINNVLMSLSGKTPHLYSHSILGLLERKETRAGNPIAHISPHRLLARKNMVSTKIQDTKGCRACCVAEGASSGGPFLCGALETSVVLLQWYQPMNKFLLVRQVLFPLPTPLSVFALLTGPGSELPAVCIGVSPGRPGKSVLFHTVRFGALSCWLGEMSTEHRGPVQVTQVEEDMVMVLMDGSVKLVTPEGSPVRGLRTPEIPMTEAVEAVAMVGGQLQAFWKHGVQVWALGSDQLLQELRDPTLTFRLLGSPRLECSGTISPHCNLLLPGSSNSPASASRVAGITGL

Regarding `CC(C)n1cnc2cc(-c3ccc4c(c3)N([C@H]3C[C@@H](N5CCCCC5)C3)C(=O)C43CCN(C(=O)[C@@H]4CCN(C(=O)C5CCN(c6ccc(C7CCC(=O)NC7=O)cn6)CC5)[C@H](C)C4)CC3)nc(NC3CC3)c21` (mixture of isomers) [Example 245, (3RS)-3-(6-{4-[(2R,4R)-4-({6-[4-(cyclopropylamino)-3-(propan-2-yl)-3H-imidazo[4,5-c]pyridin-6-yl]-2-oxo-1-[(1S,3S)-3-(piperidin-1-yl)cyclobutyl]-1,2-dihydrospiro[indole-3,4′-piperidin]-1′-yl}carbonyl)-2-methylpiperidine-1-carbonyl]piperidin-1-yl}pyridin-3-yl)piperidine-2,6-dione], the DC50 was less than 100 nM and the greatest degradation seen (Dmax) fell in the range of 70 to 85%.
Take `CC(C)n1cnc2cc(-c3ccc4c(c3)N([C@H]3C[C@@H](N5CCCCC5)C3)C(=O)C43CCN(C(=O)[C@H]4C[C@@H](C)CN(C(=O)C5CCN(c6ccc(C7CCC(=O)NC7=O)cn6)CC5)C4)CC3)nc(NC3CC3)c21` (mixture of isomers) [Example 246, (3RS)-3-(6-{4-[(3S,5R)-3-({6-[4-(cyclopropylamino)-3-(propan-2-yl)-3H-imidazo[4,5-c]pyridin-6-yl]-2-oxo-1-[(1S,3S)-3-(piperidin-1-yl)cyclobutyl]-1,2-dihydrospiro[indole-3,4′-piperidin]-1′-yl}carbonyl)-5-methylpiperidine-1-carbonyl]piperidin-1-yl}pyridin-3-yl)piperidine-2,6-dione]: the DC50 fell in the range of 100 to 500 nM and the Dmax lay within 50 to 70%.
Take `CC(C)n1cnc2cc(-c3ccc4c(c3)N([C@H]3C[C@@H](N5CCCCC5)C3)C(=O)C43CCN(C(=O)[C@H]4CCN(C(=O)C5CCN(c6ccc(C7CCC(=O)NC7=O)cn6)CC5)C[C@H]4C)CC3)nc(NC3CC3)c21` (mixture of isomers) [Example 247, (3RS)-3-(6-{4-[(3S,4S)-4-({6-[4-(cyclopropylamino)-3-(propan-2-yl)-3H-imidazo[4,5-c]pyridin-6-yl]-2-oxo-1-[(1S,3S)-3-(piperidin-1-yl)cyclobutyl]-1,2-dihydrospiro[indole-3,4′-piperidin]-1′-yl}carbonyl)-3-methylpiperidine-1-carbonyl]piperidin-1-yl}pyridin-3-yl)piperidine-2,6-dione]: the DC50 is less than 100 nM and the maximal degradation (Dmax) is 70 to 85%.
As to `CC(C)n1cnc2cc(-c3ccc4c(c3)N([C@H]3C[C@@H](N5CCCCC5)C3)C(=O)C43CCN(C(=O)[C@H]4CN(C(=O)C5CCN(c6ccc(C7CCC(=O)NC7=O)cn6)CC5)C[C@H]4C)CC3)nc(NC3CC3)c21` (mixture of isomers) [Example 248, (3RS)-3-(6-{4-[(3R,4S)-3-({6-[4-(cyclopropylamino)-3-(propan-2-yl)-3H-imidazo[4,5-c]pyridin-6-yl]-2-oxo-1-[(1S,3S)-3-(piperidin-1-yl)cyclobutyl]-1,2-dihydrospiro[indole-3,4′-piperidin]-1′-yl}carbonyl)-4-methylpyrrolidine-1-carbonyl]piperidin-1-yl}pyridin-3-yl)piperidine-2,6-dione], the DC50 was less than 100 nM and the Dmax is more than 85%.
On to `CC(C)n1cnc2cc(-c3ccc4c(c3)N([C@H]3C[C@@H](N5CCCCC5)C3)C(=O)C43CCN(C(=O)[C@@H]4CCN(C(=O)C5CCN(c6ccc(C7CCC(=O)NC7=O)cn6)CC5)[C@@H]4C)CC3)nc(Nc3ccccc3F)c21` (mixture of isomers) [Example 249, (3RS)-3-(6-{4-[(2R,3R)-3-[(6-{4-[(2-fluorophenyl)amino]-3-(propan-2-yl)-3H-imidazo[4,5-c]pyridin-6-yl}-2-oxo-1-[(1S,3S)-3-(piperidin-1-yl)cyclobutyl]-1,2-dihydrospiro[indole-3,4′-piperidin]-1′-yl)carbonyl]-2-methylpyrrolidine-1-carbonyl]piperidin-1-yl}pyridin-3-yl)piperidine-2,6-dione], for which the 50% degradation concentration (DC50) was less than 100 nM and the greatest degradation seen (Dmax) is 50 to 70%.
Regarding `CC(C)n1cnc2cc(-c3ccc4c(c3)N([C@H]3C[C@@H](N5CCCCC5)C3)C(=O)C43CCN(C(=O)C4CN(C(=O)C5CCN(c6ccc(C7CCC(=O)NC7=O)cn6)CC5)CC(C)(C)C4)CC3)nc(NC3CC3)c21` (mixture of isomers) [Example 250, (3RS)-3-(6-{4-[5-({6-[4-(cyclopropylamino)-3-(propan-2-yl)-3H-imidazo[4,5-c]pyridin-6-yl]-2-oxo-1-[(1S,3S)-3-(piperidin-1-yl)cyclobutyl]-1,2-dihydrospiro[indole-3,4′-piperidin]-1′-yl}carbonyl)-3,3-dimethylpiperidine-1-carbonyl]piperidin-1-yl}pyridin-3-yl)piperidine-2,6-dione], the DC50 was less than 100 nM and the Dmax was in the range of 70 to 85%.
For `CC(C)n1cnc2cc(-c3ccc4c(c3)N([C@H]3C[C@@H](N5CCCCC5)C3)C(=O)C43CCN(C(=O)C45CCC(C)(C4)N(C(=O)C4CCN(c6ccc(C7CCC(=O)NC7=O)cn6)CC4)C5)CC3)nc(NC3CC3)c21` (mixture of isomers) [Example 251, (3RS)-3-(6-{4-[4-({6-[4-(cyclopropylamino)-3-(propan-2-yl)-3H-imidazo[4,5-c]pyridin-6-yl]-2-oxo-1-[(1S,3S)-3-(piperidin-1-yl)cyclobutyl]-1,2-dihydrospiro[indole-3,4′-piperidin]-1′-yl}carbonyl)-1-methyl-2-azabicyclo[2.2.1]heptane-2-carbonyl]piperidin-1-yl}pyridin-3-yl)piperidine-2,6-dione], the DC50 is less than 100 nM and the maximal degradation (Dmax) lay in the range of 50 to 70%.
On the same counts, the results for `CC(C)n1cnc2cc(-c3ccc4c(c3)N([C@H]3C[C@@H](N5CCCCC5)C3)C(=O)C43CCN(C(=O)[C@H]4CN(C(=O)C5CCN(c6ccc(C7CCC(=O)NC7=O)cc6)CC5)CC4(C)C)CC3)nc(NC3CC3)c21` (mixture of isomers) [Example 252, (3RS)-3-(4-{4-[(4R)-4-({6-[4-(cyclopropylamino)-3-(propan-2-yl)-3H-imidazo[4,5-c]pyridin-6-yl]-2-oxo-1-[(1S,3S)-3-(piperidin-1-yl)cyclobutyl]-1,2-dihydrospiro[indole-3,4′-piperidin]-1′-yl}carbonyl)-3,3-dimethylpyrrolidine-1-carbonyl]piperidin-1-yl}phenyl)piperidine-2,6-dione] are less than 100 nM and 70 to 85%.
For `CC1CN(C(=O)C2CCN(c3ccc(C4CCC(=O)NC4=O)cn3)CC2)CCC1C(=O)N1CCC2(CC1)C(=O)N([C@H]1C[C@@H](N3CCCCC3)C1)c1cc(-c3cc4ncn(C(C)C)c4c(NC4CC4)n3)ccc12` (mixture of isomers) [Example 253, (3RS)-3-(6-{4-[4-({6-[4-(cyclopropylamino)-3-(propan-2-yl)-3H-imidazo[4,5-c]pyridin-6-yl]-2-oxo-1-[(1S,3S)-3-(piperidin-1-yl)cyclobutyl]-1,2-dihydrospiro[indole-3,4′-piperidin]-1′-yl}carbonyl)-3-methylpiperidine-1-carbonyl]piperidin-1-yl}pyridin-3-yl)piperidine-2,6-dione], the DC50 was less than 100 nM and the Dmax is 70 to 85%.
Turning to `CC1C(C(=O)N2CCC3(CC2)C(=O)N([C@H]2C[C@@H](N4CCCCC4)C2)c2cc(-c4cc5ncn(C(C)C)c5c(NC5CC5)n4)ccc23)CCCN1C(=O)C1CCN(c2ccc(C3CCC(=O)NC3=O)cc2)CC1` (mixture of isomers) [Example 254, (3RS)-3-(4-{4-[3-({6-[4-(cyclopropylamino)-3-(propan-2-yl)-3H-imidazo[4,5-c]pyridin-6-yl]-2-oxo-1-[(1S,3S)-3-(piperidin-1-yl)cyclobutyl]-1,2-dihydrospiro[indole-3,4′-piperidin]-1′-yl}carbonyl)-2-methylpiperidine-1-carbonyl]piperidin-1-yl}phenyl)piperidine-2,6-dione], the DC50 lay in the range of 100 to 500 nM and the Dmax was 50 to 70%.
As to `CCC1(C(=O)N2CCC3(CC2)C(=O)N([C@H]2C[C@@H](N4CCCCC4)C2)c2cc(-c4cc5ncn(C(C)C)c5c(NC5CC5)n4)ccc23)CCN(C(=O)C2CCN(c3ccc(C4CCC(=O)NC4=O)cn3)CC2)CC1` (mixture of isomers) [Example 255, (3RS)-3-(6-{4-[4-({6-[4-(cyclopropylamino)-3-(propan-2-yl)-3H-imidazo[4,5-c]pyridin-6-yl]-2-oxo-1-[(1S,3S)-3-(piperidin-1-yl)cyclobutyl]-1,2-dihydrospiro[indole-3,4′-piperidin]-1′-yl}carbonyl)-4-ethylpiperidine-1-carbonyl]piperidin-1-yl}pyridin-3-yl)piperidine-2,6-dione], the half-maximal degradation concentration (DC50) was less than 100 nM and the Dmax was more than 85%.
With `COC1CC(C(=O)N2CCC3(CC2)C(=O)N([C@H]2C[C@@H](N4CCCCC4)C2)c2cc(-c4cc5ncn(C(C)C)c5c(NC5CC5)n4)ccc23)CN(C(=O)C2CCN(c3ccc(C4CCC(=O)NC4=O)cn3)CC2)C1` (mixture of isomers) [Example 256, (3RS)-3-(6-{4-[3-({6-[4-(cyclopropylamino)-3-(propan-2-yl)-3H-imidazo[4,5-c]pyridin-6-yl]-2-oxo-1-[(1S,3S)-3-(piperidin-1-yl)cyclobutyl]-1,2-dihydrospiro[indole-3,4′-piperidin]-1′-yl}carbonyl)-5-methoxypiperidine-1-carbonyl]piperidin-1-yl}pyridin-3-yl)piperidine-2,6-dione], the DC50 lay within 100 to 500 nM and the Dmax fell in the range of 50 to 70%.
Consider `COC1CN(C(=O)C2CCN(c3ccc(C4CCC(=O)NC4=O)cc3)CC2)CCC1C(=O)N1CCC2(CC1)C(=O)N([C@H]1C[C@@H](N3CCCCC3)C1)c1cc(-c3cc4ncn(C(C)C)c4c(NC4CC4)n3)ccc12` (mixture of isomers) [Example 257, (3RS)-3-(4-{4-[4-({6-[4-(cyclopropylamino)-3-(propan-2-yl)-3H-imidazo[4,5-c]pyridin-6-yl]-2-oxo-1-[(1S,3S)-3-(piperidin-1-yl)cyclobutyl]-1,2-dihydrospiro[indole-3,4′-piperidin]-1′-yl}carbonyl)-3-methoxypiperidine-1-carbonyl]piperidin-1-yl}phenyl)piperidine-2,6-dione], for which the DC50 is less than 100 nM and the Dmax fell in the range of 50 to 70%.

One may read the DC50 as the midpoint of the concentration-degradation curve. A word on the Dmax: it is the greatest extent of degradation seen.
